Measurements: patent US5175290A, “8-(oxo-substituted cycloalkyl)xanthines” (Marion Merrell Dow Inc., priority 1988, dated 1992)
Where two headings read alike, the source gives them in different places.

Legend:
responses to adenosine = conditions: all tissues studied, except rat hippocampus; cited from earlier work
[1] = system: basal heart rate and basal blood pressure; assay: Cardiovascular effects (basal heart rate and basal blood pressure) in guinea pigs; format: in vivo, guinea pig; conditions: i.v., at 2 × histamine-reversal ED50, * = not significant
Procedure: Cardiovascular effects (basal heart rate and basal blood pressure) in guinea pigs
Male guinea pigs were anesthetized with urethane and the carotid artery and jugular vein were cannulated. Aortic blood pressure was recorded from a pressure transducer and the signal was integrated to give a heart rate signal.
Each animal received a single intravenous injection of one compound. The dose of each compound was based upon the ED50 value from the reversal of histamine-induced bronchoconstriction in the anesthetized guinea pig. Thus the various compounds were studied at equipotent bronchodilator doses (2×ED50). A group of control animals received injections of vehicle only. Changes in heart rate and blood pressure from pre-injection baseline values produced by drugs or vehicle were compared.

[2] = system: pentobarbital-induced heart failure; assay: Pentobarbital-induced heart failure in rats; format: in vivo, rat (Sprague-Dawley); conditions: for ED40: Rattus norvegicus, iv; for heart rate, maximum recovery dose: bracketed value under RD40 heart rate
Procedure: Adult male Sprague-Dawley rats (350-450 g) were used in this example. Animals were anesthetized using sodium pentobarbital (40-50 mg/kg, i.p.) and placed supine on a heated (37° C.) surgical table. A 7F pressure tipped catheter (Millar) was inserted into the left carotid artery and advanced into the left ventricle of the heart to measure left ventricular pressure (LVP), dP/dt and heart rate (HR). Mean arterial blood pressure (MABP) was monitored via a PE-50 catheter placed into a femoral artery. The right jugular vein and a femoral vein were catheterized with PE-10 tubing for infusion of the test compounds and pentobarbital, respectively.
Following bilateral cervical vagotomy, a 15 gauge blunt needle was inserted into the trachea via a midcervical tracheostomy to ventilate the animals (60/minute, TV=2.3 mL) Each animal was allowed a 5-10 minute period to stabilize and control measurements were recorded. A dose of 60-70 mg/kg of pentobarbital wa then administered slowly over a 5 minute period via the femoral vein until MABP was stabilized at 60 mm Hg, at which time an infusion of 0.2 mg/kg/minute of pentobarbital was begun and continued throughout the experiment. Each animal was then allowed 10-15 minutes to stabilize and values representing heart failure were recorded. Control and test compounds were tested in a cumulative-dose manner using at least four doses. Dose-related effects, e.g., dP/dt and MABP were continually monitored during a 15 minute recovery period between each dose. At the time of the peak dP/dt response during each recovery period, values for all four variables were recorded. The animals were sacrificed using a lethal injection of pentobarbital 15 minutes following the last dose of the test compound. Only one compound was administered to each animal.
The RD40 is defined as the dose of compound required to achieve a 40% recovery in the variable (dP/dt, MABP) being measured. It was calculated for each compound using an SAS® probit analysis on a Vax computer. Briefly, the program transforms the dose into log 10 and calculates the line of least squares using the mean value for recovery at each dose. In most instances the RD40 was then extrapolated, but in those instances where a full dose-response curve was not achieved because of the limited solubility of the compound, the RD40 was estimated.

[3] = system: histamine-induced bronchoconstriction; assay: Reversal of histamine-induced bronchoconstriction in the anesthetized guinea pig; format: in vivo; conditions: guinea pigs; for ED50: Cavia porcellus, iv, dose required to reverse the histamine response by 50%; for maximum effect (maximum percent reversal of histamine-induced bronchoconstriction): i.v.
Procedure: Reversal of histamine-induced bronchoconstriction in the anesthetized guinea pig
A modification of the general method of H. Konzett and R. Rossler [Naunyn-Schmiedeberg's Arch. Pharmakol.
Male Duncan-Hartley guinea pigs (400-600) were anesthetized using an intratraperitoneal injection of urethane (1.5 g/kg). After the neck area was shaved, the animal was placed in the dorsal recumbent position on a Narco temperature controlled surgical board (37° C.) to maintain body temperature. Following a midline neck incision, the carotid artery and jugular vein were cannulated using PE50 polyethylene tubing. Both catheters were flushed with heparinized saline (20 U/mL) to prevent clotting. The trachea was then cannulated using a 15 gauge Leuer stub and was connected to a Harvard Apparatus small animal respirator. The animal was ventilated at a constant rate and volume (52 breaths/minute and 1 mL room air/[…] body weight). Airway pressure was measured using a Statham pressure transducer connected to the side port of the tracheal cannula. The arterial blood pressure was measured using a Statham pressure transducer connected to the carotid artery. Both transducers were connected to a Gould chart recorder to produce the desired physiographs.
After allowing the animal to stabilize for 10 minutes, aerosolized histamine (0.01%) was delivered to the airways using a DeVilbiss ultrasonic nebulizer connected in-line between the respirator and the guinea pig. After the maximum bronchoconstriction was reached, as evidenced by a maximum plateau in airway pressure, an injection of vehicle (0.6 mL) was administered via the jugular vein. […] At the end of the experiment, terbutaline sulfate (1 mg/mL), a beta agonist, was injected i.v. to determine if further bronchodilation could be achieved The nebulizer was then turned off and the minimum airway pressure was recorded to determine the final baseline pressure.
ED50 (mg/kg) values and maximum effect (%) were calculated using SAS and PROBIT computer analyses. […] The maximum effect is the maximum percent reversal of histamine-induced bronchoconstriction produced by the test compound.

[4] = system: A1 and A2 adenosine receptors; conditions: A1 versus A2; cited from earlier work
[5] = bronchial asthma; cited from earlier work
[6] = cited from earlier work
[7] = rats, i.v., dose for 40% recovery in dP/dt, extrapolated or estimated by probit, read-out: RD40, dP/dt
[8] = rats, i.v., extrapolated or estimated by probit, read-out: RD40, heart rate

SMILES: CCCn1c(=O)[nH]c(=O)c2[nH]cnc21 [Enprofylline, 3-propylxanthine]
- effectiveness in diminishing responses to adenosine (responses to adenosine): much less effective than theophylline
- Basal blood pressure [1]: 76 ± 10%
- Basal heart rate [1]: 120 ± 6%
- ED40 [2, 7]: 48 mg/kg
- ED40 [2, 8]: 93 mg/kg
- dP/dt, maximum recovery ([2]; rats, i.v.): 30%
- heart rate, maximum recovery dose ([2]; rats, i.v.): 50 mg/kg
- ED50 [3]: 13.1 ± 3.1 mg/kg
- maximum effect (maximum percent reversal of histamine-induced bronchoconstriction) [3]: 84.8 ± 3.6%

SMILES: CCCn1c(=O)c2[nH]c([C@H]3CC[C@H](O)C3)nc2n(CCC)c1=O (relative stereo) [trans, trans-8-(3-hydroxycyclopentyl)-1,3-dipropylxanthine]
- Basal blood pressure [1]: 96 ± 8%
- Basal heart rate [1]: 107 ± 5%
- ED40 [2, 7]: 7.8 mg/kg
- ED40 [2, 8]: 3.1 mg/kg
- dP/dt, maximum recovery ([2]; rats, i.v.): 71%
- heart rate, maximum recovery dose ([2]; rats, i.v.): 120 mg/kg
- ED50 [3]: 11.6 ± 1.6 mg/kg
- maximum effect (maximum percent reversal of histamine-induced bronchoconstriction) [3]: 78.5 ± 4.0%

SMILES: CCCn1c(=O)c2[nH]c([C@H]3CC[C@@H](O)C3)nc2n(CCC)c1=O (relative stereo) [cis, cis-8-(3-hydroxycyclopentyl)-1,3-dipropylxanthine]
- Basal blood pressure [1]: 90 ± 5%
- Basal heart rate [1]: 106 ± 3%
- ED40 [2, 7]: 17.7 mg/kg
- ED40 [2, 8]: 120 mg/kg
- dP/dt, maximum recovery ([2]; rats, i.v.): 53%
- heart rate, maximum recovery dose ([2]; rats, i.v.): 20 mg/kg
- ED50 [3]: 14.1 ± 3.6 mg/kg
- maximum effect (maximum percent reversal of histamine-induced bronchoconstriction) [3]: 72.8 ± 6.8%

SMILES: CCCn1c(=O)c2[nH]c(C3CCC(O)C3)nc2n(CCC)c1=O (mixture of isomers) [cis/trans]
- Basal blood pressure [1]: 65 ± 3%
- Basal heart rate [1]: 86 ± 4%
- ED40 [2, 7]: 19 mg/kg
- ED40 [2, 8]: 20 mg/kg
- dP/dt, maximum recovery ([2]; rats, i.v.): 30%
- heart rate, maximum recovery dose ([2]; rats, i.v.): 30 mg/kg
- ED50 [3]: 20.3 ± 4.6 mg/kg
- maximum effect (maximum percent reversal of histamine-induced bronchoconstriction) [3]: 64.0 ± 4.8%

SMILES: Nc1cc(-c2ccncc2)c[nH]c1=O [Amrinone]
- ED40 [2, 7]: 4.12 mg/kg
- ED40 [2, 8]: 77 mg/kg
- dP/dt, maximum recovery ([2]; rats, i.v.): 63%
- heart rate, maximum recovery dose ([2]; rats, i.v.): 10 mg/kg

SMILES: Cn1c(=O)c2[nH]cnc2n(C)c1=O [Theophylline]
- Basal blood pressure [1]: 66 ± 8%
- Basal heart rate [1]: 132 ± 4%
- effectiveness in displacing ligands from both the A1 and A2 adenosine receptors [4]: about equally effective
- vital capacity [5]: demonstrable increase in vital capacity
- ED40 ([2]; read-out: RD40, dP/dt): 18 mg/kg
- ED40 ([2]; read-out: RD40, heart rate): 94 mg/kg
- dP/dt, maximum recovery ([2]; rats, i.v.): 50%
- heart rate, maximum recovery dose ([2]; rats, i.v.): 50 mg/kg
- cardiac stimulation ([6]; in vivo): sometimes powerful cardiac stimulation
- perfusion of organs ([6]; in vivo): increased perfusion of most organs
- peripheral vascular resistance ([6]; in vivo): modest decreases in peripheral vascular resistance
- heart rate ([6]; therapeutic doses, effect short-lived in man): modest increases in heart rate
- ED50 [3]: 35.1 ± 5.3 mg/kg
- maximum effect (maximum percent reversal of histamine-induced bronchoconstriction) [3]: 72.8 ± 6.6%

SMILES: Cn1c(=O)c2c(ncn2C)n(C)c1=O [caffeine]
- effectiveness in displacing ligands from both the A1 and A2 adenosine receptors [4]: about equally effective
